Article PMC7072645, “Targeting the Class A Carbapenemase GES-5 via Virtual Screening” (Biomolecules, 2020)

Tests used:
[1] = target: T1, GES-5 (Klebsiella pneumoniae, UniProt Q09HD0); format: biochemical; settings: reporter substrate, purified recombinant GES-5
T1 construct: made in house; host or cells: E. coli BL21(DE3)
Description: For protein expression, competent E. coli BL21(DE3) cells (PROMEGA, Madison, WI, USA) were transformed with recombinant plasmid blaGES-5/pet24a(+) as reported. Protein purification was performed using an Äkta Prime plus chromatograph system (GE Healthcare Life Sciences, Freiburg, Germany). GES-5 (Uniprot ID Q09HD0) was conveniently purified in a single step using a Macro-Prep High Q resin (Bio-Rad, Hercules, CA, USA.).

[2] = target: T1, GES-5; experiment: GES-5 hydrolysis inhibition, nitrocefin spectrophotometric assay; format: biochemical; settings: for LE vs. GES-5: ligand efficiency from Ki vs GES-5
Description: (§1) Reactions were monitored using a Jasco V730 spectrophotometer. […] In order to perform spectrophotometric tests, compounds were dissolved in dimethyl sulfoxide (DMSO) to a concentration of 25 mM and stored at −20 °C. […] The reaction was typically initiated by adding GES-5 (2 nM final concentration), previously dialyzed in the reaction buffer. […] For KPC-2 experiments, the protein was obtained, and assays were conducted as previously reported.

[3] = target: KPC-2 (Klebsiella pneumoniae, UniProt Q9F663); experiment: KPC-2 inhibition assay, conducted as previously reported; format: biochemical; settings: for % inhibition at [1mM] vs KPC-2: 1 mM inhibitor; for Ki: calculated from IC50 by Cheng-Prusoff; for LE vs. KPC-2: ligand efficiency from Ki vs KPC-2
Description: as §1

[4] = tested on: O=C(Cc1cccs1)N[C@@H]1C(=O)N2C(C(=O)O)=C(/C=C/c3ccc([N+](=O)[O-])cc3[N+](=O)[O-])CS[C@H]12; experiment: purified protein, by the assay type; settings: other: reporter substrate, purified recombinant GES-5

T1 sequence (Q09HD0 19-287): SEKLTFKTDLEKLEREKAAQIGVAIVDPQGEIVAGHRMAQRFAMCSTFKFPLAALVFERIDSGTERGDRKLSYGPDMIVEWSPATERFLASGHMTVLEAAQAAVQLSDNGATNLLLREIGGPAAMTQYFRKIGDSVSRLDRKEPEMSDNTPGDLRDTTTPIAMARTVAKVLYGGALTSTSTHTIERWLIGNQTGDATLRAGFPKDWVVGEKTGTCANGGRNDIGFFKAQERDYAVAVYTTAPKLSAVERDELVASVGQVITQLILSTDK
KPC-2, sequence (Q9F663 25-293, looked up, species assumed): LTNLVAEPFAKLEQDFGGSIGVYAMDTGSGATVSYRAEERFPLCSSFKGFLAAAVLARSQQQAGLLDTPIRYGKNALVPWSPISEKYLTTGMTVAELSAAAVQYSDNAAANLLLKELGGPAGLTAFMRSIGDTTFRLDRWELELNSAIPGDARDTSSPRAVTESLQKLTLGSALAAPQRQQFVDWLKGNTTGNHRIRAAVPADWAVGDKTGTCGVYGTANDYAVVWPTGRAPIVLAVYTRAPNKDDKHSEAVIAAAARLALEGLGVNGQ

Molecule	Km [1]	Ki [2]	LE vs. GES-5 [2]	% inhibition at [1mM] vs KPC-2 [3]	Ki [3]	LE vs. KPC-2 [3]	% inhibition at [1mM] vs GES-5 [2]	Km [4]
O=C(Cc1cccs1)N[C@@H]1C(=O)N2C(C(=O)O)=C(CSc3ccc([N+](=O)[O-])c(C(=O)O)c3)CS[C@H]12 [CENTA]	524 µM	–	–	–	–	–	–	–
COc1cc(Br)c(-c2nnn[nH]2)cc1OC [Compound 8]	–	890 µM	0.89 (0.27) kcal/mol/non-hydrogen atom	at least 30%	350 µM	0.30 kcal/mol/non-hydrogen atom	–	–
O=C(O)c1cccc(S(=O)(=O)Nc2cccnc2)c1 [Compound 12]	–	1010 µM	1.01 (0.22) kcal/mol/non-hydrogen atom	at least 30%	1380 µM	0.21 kcal/mol/non-hydrogen atom	–	–
Nc1nc(=O)n(CC(O)C(=O)O)cc1Br (centres unmarked) [Compound 13]	–	810 µM	–	at least 30%	280 µM	0.33 kcal/mol/non-hydrogen atom	–	–
COc1ccc2[nH]c(C(=O)O)nc2c1 [Compound 43]	–	660 µM	–	–	450 µM	0.33 kcal/mol/non-hydrogen atom	41%	–
GES-5 (Klebsiella pneumoniae)	–	–	–	–	–	–	–	208 µM
